Test system: MV-4-11 cells
Test: Gene expression microarray analysis (Affymetrix PrimeView) and GSEA
Type: cell-based, human
Design: RFU PODN (11730768_x_at) / Fold change /veh PODN (11730768_x_at) / RFU LINC00158 (11744669_a_at) / Fold change /veh LINC00158 (11744669_a_at) / RFU DUSP10 (11751237_a_at) / Fold change /veh DUSP10 (11751237_a_at) / RFU ID3 (11757404_x_at) / Fold change /veh ID3 (11757404_x_at) / RFU PLEKHG5 (11737974_s_at) / Fold change /veh PLEKHG5 (11737974_s_at) / RFU LRRC4B (11730491_at) / Fold change /veh LRRC4B (11730491_at) / RFU GIMAP4 (11747438_a_at) / Fold change /veh GIMAP4 (11747438_a_at) / RFU KRT8 (11758183_x_at) / Fold change /veh KRT8 (11758183_x_at) / RFU CNN1 (11734310_a_at) / Fold change /veh CNN1 (11734310_a_at) / RFU VPS37D (11726825_at) / Fold change /veh VPS37D (11726825_at) / RFU C10orf10 (11716522_x_at) / Fold change /veh C10orf10 (11716522_x_at) / RFU KIR2DL2 /// KIR2DL4 /// KIR2DL5A /// KIR2DL5B /// KIR2DS1 /// KIR2DS2 /// KIR2DS3 /// KIR2DS4 /// KIR3DL3 /// KIR3DL3 /// KIR3DS1 (11738374_at) / Fold change /veh KIR2DL2 /// KIR2DL4 /// KIR2DL5A /// KIR2DL5B /// KIR2DS1 /// KIR2DS2 /// KIR2DS3 /// KIR2DS4 /// KIR3DL3 /// KIR3DL3 /// KIR3DS1 (11738374_at) / RFU C1QL1 (11718748_at) / Fold change /veh C1QL1 (11718748_at) / RFU TMPRSS4 (11747572_a_at) / Fold change /veh TMPRSS4 (11747572_a_at) / RFU HAMP (11756126_x_at) / Fold change /veh HAMP (11756126_x_at) / RFU RNFT2 (11725882_a_at) / Fold change /veh RNFT2 (11725882_a_at) / RFU NR4A2 (11747474_a_at) / Fold change /veh NR4A2 (11747474_a_at) / RFU ABCC12 (11746883_a_at) / Fold change /veh ABCC12 (11746883_a_at) / RFU TMEM136 (11760407_x_at) / Fold change /veh TMEM136 (11760407_x_at) / RFU CLDN22 /// WWC2 (11732394_at) / Fold change /veh CLDN22 /// WWC2 (11732394_at) / RFU HLA-DPB1 (11760878_x_at) / Fold change /veh HLA-DPB1 (11760878_x_at) / RFU SPINT1 (11716480_a_at) / Fold change /veh SPINT1 (11716480_a_at) / RFU GAP43 (11754022_s_at) / Fold change /veh GAP43 (11754022_s_at) / RFU A4GNT (11735810_at) / Fold change /veh A4GNT (11735810_at) / RFU PRB3 (11715151_x_at) / Fold change /veh PRB3 (11715151_x_at) / RFU TUBB4B (11761932_at) / Fold change /veh TUBB4B (11761932_at) / RFU CAPN14 (11732068_a_at) / Fold change /veh CAPN14 (11732068_a_at) / RFU TMCC2 (11721928_a_at) / Fold change /veh TMCC2 (11721928_a_at) / RFU IRGQ (11745062_a_at) / Fold change /veh IRGQ (11745062_a_at) / RFU FAM174B (11720279_a_at) / Fold change /veh FAM174B (11720279_a_at) / RFU TMPRSS4 (11748680_a_at) / Fold change /veh TMPRSS4 (11748680_a_at) / RFU FAM212B (11763350_a_at) / Fold change /veh FAM212B (11763350_a_at) / RFU PLEKHG5 (11743358_a_at) / Fold change /veh PLEKHG5 (11743358_a_at) / RFU ZSCAN30 (11745921_a_at) / Fold change /veh ZSCAN30 (11745921_a_at) / RFU CMKLR1 (11741424_a_at) / Fold change /veh CMKLR1 (11741424_a_at) / RFU LOC101060620 /// MAPK8IP1 (11723275_at) / Fold change /veh LOC101060620 /// MAPK8IP1 (11723275_at) / RFU SPTSSB (11747773_x_at) / Fold change /veh SPTSSB (11747773_x_at) / RFU PRSS12 (11739890_at) / Fold change /veh PRSS12 (11739890_at) / RFU BIN1 (11741810_x_at) / Fold change /veh BIN1 (11741810_x_at) / RFU WNT11 (11732464_a_at) / Fold change /veh WNT11 (11732464_a_at) / RFU C10orf10 (11716521_a_at) / Fold change /veh C10orf10 (11716521_a_at) / RFU C5orf56 (11738089_at) / Fold change /veh C5orf56 (11738089_at) / RFU CYB561 (11721691_x_at) / Fold change /veh CYB561 (11721691_x_at) / RFU ANKRD19P (11752326_a_at) / Fold change /veh ANKRD19P (11752326_a_at) / RFU OR2T12 /// OR2T33 /// OR2T8 (11738714_s_at) / Fold change /veh OR2T12 /// OR2T33 /// OR2T8 (11738714_s_at) / RFU VCAN (11748164_a_at) / Fold change /veh VCAN (11748164_a_at) / RFU JSRP1 (11732532_at) / Fold change /veh JSRP1 (11732532_at) / RFU KRTAP10-11 (11738290_x_at) / Fold change /veh KRTAP10-11 (11738290_x_at) / RFU MYO3A (11730013_a_at) / Fold change /veh MYO3A (11730013_a_at) / RFU EBF3 (11725865_a_at) / Fold change /veh EBF3 (11725865_a_at) / RFU CAMK2N1 (11719241_x_at) / Fold change /veh CAMK2N1 (11719241_x_at) / RFU C5orf56 (11738088_a_at) / Fold change /veh C5orf56 (11738088_a_at) / RFU OLFML3 (11715873_a_at) / Fold change /veh OLFML3 (11715873_a_at) / RFU LOC100653217 /// NTM (11731650_a_at) / Fold change /veh LOC100653217 /// NTM (11731650_a_at) / RFU MAPK11 (11762145_a_at) / Fold change /veh MAPK11 (11762145_a_at) / RFU FIZ1 (11724087_x_at) / Fold change /veh FIZ1 (11724087_x_at) / RFU OASL (11726364_x_at) / Fold change /veh OASL (11726364_x_at) / RFU SOX15 (11748057_x_at) / Fold change /veh SOX15 (11748057_x_at) / RFU CD79A (11719716_a_at) / Fold change /veh CD79A (11719716_a_at) / RFU HIST1H1D (11736915_at) / Fold change /veh HIST1H1D (11736915_at) / RFU CASKIN2 (11723855_a_at) / Fold change /veh CASKIN2 (11723855_a_at) / RFU LOC730098 (11760151_x_at) / Fold change /veh LOC730098 (11760151_x_at) / RFU OR4N2 (11742367_at) / Fold change /veh OR4N2 (11742367_at) / RFU PRRT2 (11749266_a_at) / Fold change /veh PRRT2 (11749266_a_at) / RFU SNX32 (11753110_a_at) / Fold change /veh SNX32 (11753110_a_at) / RFU CDHR5 (11726645_a_at) / Fold change /veh CDHR5 (11726645_a_at) / RFU RCAN1 (11760418_a_at) / Fold change /veh RCAN1 (11760418_a_at) / RFU FAM167A (11723789_a_at) / Fold change /veh FAM167A (11723789_a_at) / RFU FAM26E (11764081_at) / Fold change /veh FAM26E (11764081_at) / RFU ISYNA1 (11749810_s_at) / Fold change /veh ISYNA1 (11749810_s_at) / RFU ACY1 (11761880_at) / Fold change /veh ACY1 (11761880_at) / RFU 11764098_at / Fold change /veh 11764098_at / RFU SAMD14 (11745864_x_at) / Fold change /veh SAMD14 (11745864_x_at) / RFU NPB (11741838_a_at) / Fold change /veh NPB (11741838_a_at) / RFU TMPRSS6 (11731388_a_at) / Fold change /veh TMPRSS6 (11731388_a_at) / RFU KRTAP10-2 (11738614_at) / Fold change /veh KRTAP10-2 (11738614_at) / RFU ARHGAP8 /// PRR5-ARHGAP8 (11727945_x_at) / Fold change /veh ARHGAP8 /// PRR5-ARHGAP8 (11727945_x_at) / RFU KRTAP5-7 /// NADSYN1 (11734609_at) / Fold change /veh KRTAP5-7 /// NADSYN1 (11734609_at) / RFU RASL12 (11751679_a_at) / Fold change /veh RASL12 (11751679_a_at) / RFU CDKN2B (11736163_a_at) / Fold change /veh CDKN2B (11736163_a_at) / RFU PRF1 (11729649_at) / Fold change /veh PRF1 (11729649_at) / RFU, ZNF638 /// ZNF638-IT1 / Fold change vs veh, ZNF638 /// ZNF638-IT1 / RFU, PANK3 / Fold change vs veh, PANK3 / RFU, SH3YL1 / Fold change vs veh, SH3YL1 / RFU, ZEB2 / Fold change vs veh, ZEB2 / RFU, NRIP1 / Fold change vs veh, NRIP1 / RFU, PTTG1IP / Fold change vs veh, PTTG1IP / RFU, CAPN2 / Fold change vs veh, CAPN2 / RFU, MED14 / Fold change vs veh, MED14 / RFU, SNORA58 / Fold change vs veh, SNORA58 / RFU, C1orf63 / Fold change vs veh, C1orf63 / RFU, LRRFIP1 / Fold change vs veh, LRRFIP1 / RFU, NDUFAF7 / Fold change vs veh, NDUFAF7 / RFU, SLC12A2 / Fold change vs veh, SLC12A2 / RFU, IBTK / Fold change vs veh, IBTK / RFU, ESF1 / Fold change vs veh, ESF1 / Fold change vs veh, TMEM50B / RFU, TAOK1 / Fold change vs veh, TAOK1 / RFU, ACBD3 / Fold change vs veh, ACBD3 / RFU, TMA16 / Fold change vs veh, TMA16 / RFU, RWDD3 / Fold change vs veh, RWDD3 / RFU, BCAT1 / Fold change vs veh, BCAT1 / RFU, EDEM3 / Fold change vs veh, EDEM3 / RFU, TMEM33 / Fold change vs veh, TMEM33 / RFU, WDR75 / Fold change vs veh, WDR75 / RFU, AHCTF1 / Fold change vs veh, AHCTF1 / RFU, TFRC / Fold change vs veh, TFRC / RFU, ZDHHC17 / Fold change vs veh, ZDHHC17 / RFU, NOM1 / Fold change vs veh, NOM1 / RFU, ARL8B / Fold change vs veh, ARL8B / RFU, ZBTB11 / Fold change vs veh, ZBTB11 / RFU, TAMM41 / Fold change vs veh, TAMM41 / RFU, KIAA1704 /// LOC100996395 / Fold change vs veh, KIAA1704 /// LOC100996395 / RFU, ING1 / Fold change vs veh, ING1 / RFU, TRMT61B / Fold change vs veh, TRMT61B / RFU, FUBP3 / Fold change vs veh, FUBP3 / RFU, TP53 / Fold change vs veh, TP53 / RFU, TNKS2 / Fold change vs veh, TNKS2 / RFU, ZFP14 / Fold change vs veh, ZFP14 / RFU, ACTR2 / Fold change vs veh, ACTR2 / RFU, PPP3R1 / Fold change vs veh, PPP3R1 / RFU, PIK3R1 / Fold change vs veh, PIK3R1 / RFU, HNRNPA1 / Fold change vs veh, HNRNPA1 / RFU, RNF170 / Fold change vs veh, RNF170 / RFU, ZNF28 / Fold change vs veh, ZNF28 / RFU, RNGTT / Fold change vs veh, RNGTT / RFU, OGT / Fold change vs veh, OGT / RFU, BRD1 / Fold change vs veh, BRD1 / RFU, MARS / Fold change vs veh, MARS / RFU, ZNF655 / Fold change vs veh, ZNF655 / RFU, FAHD1 / Fold change vs veh, FAHD1 / RFU, BDP1 / Fold change vs veh, BDP1 / RFU, LRRCC1 / Fold change vs veh, LRRCC1 / RFU, ARID1A / Fold change vs veh, ARID1A / RFU, ZNF146 / Fold change vs veh, ZNF146 / RFU, ZNF330 / Fold change vs veh, ZNF330 / RFU, GPN3 / Fold change vs veh, GPN3 / RFU, C9orf123 / Fold change vs veh, C9orf123 / RFU, N4BP2L2 / Fold change vs veh, N4BP2L2 / RFU, ARFIP1 / Fold change vs veh, ARFIP1 / RFU, FAM179B / Fold change vs veh, FAM179B / RFU, BCL10 / Fold change vs veh, BCL10 / RFU, UHRF1BP1L / Fold change vs veh, UHRF1BP1L / RFU, BET1 / Fold change vs veh, BET1 / RFU, CNOT2 / Fold change vs veh, CNOT2 / RFU, ZNF268 / Fold change vs veh, ZNF268 / Fold change vs veh, ZNF507 / RFU, DGCR2 / Fold change vs veh, DGCR2 / RFU, WDSUB1 / Fold change vs veh, WDSUB1 / Fold change vs veh, HSP90B1 /// MIR3652 / RFU, ADSS / Fold change vs veh, ADSS / RFU, GK / Fold change vs veh, GK / RFU, ZNF148 / Fold change vs veh, ZNF148 / RFU, TAF9 / Fold change vs veh, TAF9 / RFU, SLC1A5 / Fold change vs veh, SLC1A5 / RFU, SLMO2 / Fold change vs veh, SLMO2 / RFU, ABCC4 / Fold change vs veh, ABCC4 / RFU, LOC101060439 /// RAP1B / Fold change vs veh, LOC101060439 /// RAP1B / RFU, RFX7 / Fold change vs veh, RFX7 / RFU, GTPBP10 / Fold change vs veh, GTPBP10 / RFU, CNEP1R1 / Fold change vs veh, CNEP1R1 / RFU, BIVM-ERCC5 /// ERCC5 / Fold change vs veh, BIVM-ERCC5 /// ERCC5 / RFU, ILF3 / Fold change vs veh, ILF3 / RFU 11762660_at / Fold change /veh 11762660_at / RFU VCAN (11757783_s_at) / Fold change /veh VCAN (11757783_s_at) / RFU DDX43 (11728927_at) / Fold change /veh DDX43 (11728927_at) / RFU KRT8 (11758188_x_at) / Fold change /veh KRT8 (11758188_x_at) / RFU NKD1 (11759106_at) / Fold change /veh NKD1 (11759106_at) / RFU SRD5A1 (11742802_a_at) / Fold change /veh SRD5A1 (11742802_a_at) / RFU TPSAB1 /// TPSB2 (11721975_s_at) / Fold change /veh TPSAB1 /// TPSB2 (11721975_s_at) / RFU GSTM3 (11746129_a_at) / Fold change /veh GSTM3 (11746129_a_at) / RFU IL23R (11737362_x_at) / Fold change /veh IL23R (11737362_x_at) / RFU TMEM51 (11727254_a_at) / Fold change /veh TMEM51 (11727254_a_at) / RFU PIWIL2 (11732686_x_at) / Fold change /veh PIWIL2 (11732686_x_at) / RFU ORM1 (11744905_x_at) / Fold change /veh ORM1 (11744905_x_at) / RFU CCDC152 (11743942_at) / Fold change /veh CCDC152 (11743942_at) / RFU ECM1 (11717891_a_at) / Fold change /veh ECM1 (11717891_a_at) / RFU IL23R (11748794_a_at) / Fold change /veh IL23R (11748794_a_at) / RFU TNFAIP8L3 (11732012_x_at) / Fold change /veh TNFAIP8L3 (11732012_x_at) / RFU MBOAT4 (11741988_at) / Fold change /veh MBOAT4 (11741988_at) / RFU 11764193_at / Fold change /veh 11764193_at / RFU TMEM53 (11763286_at) / Fold change /veh TMEM53 (11763286_at) / RFU MAGEB2 (11727129_at) / Fold change /veh MAGEB2 (11727129_at) / RFU TMEM200A (11744735_a_at) / Fold change /veh TMEM200A (11744735_a_at) / RFU CCDC152 (11751479_a_at) / Fold change /veh CCDC152 (11751479_a_at) / RFU FAM211A (11726209_a_at) / Fold change /veh FAM211A (11726209_a_at) / RFU RGS16 (11746705_a_at) / Fold change /veh RGS16 (11746705_a_at) / RFU VCAN (11755009_s_at) / Fold change /veh VCAN (11755009_s_at) / RFU RHOB (11743442_s_at) / Fold change /veh RHOB (11743442_s_at) / RFU RGS16 (11720943_a_at) / Fold change /veh RGS16 (11720943_a_at) / RFU RGS16 (11720944_at) / Fold change /veh RGS16 (11720944_at) / RFU, VPS4B / Fold change vs veh, VPS4B / RFU, CREB1 / Fold change vs veh, CREB1 / RFU, DNAJC13 / Fold change vs veh, DNAJC13 / RFU, GNAQ / Fold change vs veh, GNAQ / RFU, CDK5R1 / Fold change vs veh, CDK5R1 / RFU, ZRANB3 / Fold change vs veh, ZRANB3 / RFU, CUL4A / Fold change vs veh, CUL4A / RFU, CCNY / Fold change vs veh, CCNY / RFU, UFL1 / Fold change vs veh, UFL1 / RFU, COG3 / Fold change vs veh, COG3 / RFU, DIAPH2 / Fold change vs veh, DIAPH2 / RFU, SKA2 / Fold change vs veh, SKA2 / RFU, AFF3 / Fold change vs veh, AFF3 / RFU, LMF1 / Fold change vs veh, LMF1 / RFU, IPO11 / Fold change vs veh, IPO11 / RFU, DFFB / Fold change vs veh, DFFB / RFU, FOXP1 / Fold change vs veh, FOXP1 / RFU, CARD8 / Fold change vs veh, CARD8 / RFU, STRN3 / Fold change vs veh, STRN3 / RFU, ADK / Fold change vs veh, ADK / RFU, RASSF2 / Fold change vs veh, RASSF2 / RFU, WIPF1 / Fold change vs veh, WIPF1 / RFU, LARP1B / Fold change vs veh, LARP1B / RFU, RASA1 / Fold change vs veh, RASA1 / RFU, RB1 / Fold change vs veh, RB1 / RFU, PPFIA1 / Fold change vs veh, PPFIA1 / RFU, MAT2A / Fold change vs veh, MAT2A / RFU, CCT5 / Fold change vs veh, CCT5 / RFU, WDR92 / Fold change vs veh, WDR92 / RFU, CUX1 / Fold change vs veh, CUX1 / RFU, TTC7A / Fold change vs veh, TTC7A / RFU, TMEM135 / Fold change vs veh, TMEM135 / RFU, DEPTOR / Fold change vs veh, DEPTOR / RFU, CPM / Fold change vs veh, CPM / RFU, DNAJB6 / Fold change vs veh, DNAJB6 / RFU, CACNA2D3 / Fold change vs veh, CACNA2D3 / RFU, DTX4 / Fold change vs veh, DTX4 / RFU, TFCP2 / Fold change vs veh, TFCP2 / RFU, GMCL1 /// GMCL1P1 / Fold change vs veh, GMCL1 /// GMCL1P1 / RFU, AEBP2 / Fold change vs veh, AEBP2 / RFU, SNHG1 /// SNORD22 /// SNORD25 /// SNORD26 /// SNORD27 /// SNORD28 /// SNORD29 /// SNORD31 / Fold change vs veh, SNHG1 /// SNORD22 /// SNORD25 /// SNORD26 /// SNORD27 /// SNORD28 /// SNORD29 /// SNORD31 / Fold change (Aza/veh), C12orf56 (ProbeSet 11735607_a_at) / Fold change (ACY-1035/veh), C12orf56 (ProbeSet 11735607_a_at) / Fold change (Aza/veh), FGFR1OP (ProbeSet 11751329_s_at) / Fold change (ACY-1035/veh), FGFR1OP (ProbeSet 11751329_s_at) / Fold change (Aza/veh), VPS36 (ProbeSet 11739960_a_at) / Fold change (ACY-1035/veh), VPS36 (ProbeSet 11739960_a_at) / RFU SYPL1 (11715823_x_at) / Fold change /veh SYPL1 (11715823_x_at) / RFU IGFBP7 (11715501_s_at) / Fold change /veh IGFBP7 (11715501_s_at) / RFU REEP3 (11722064_at) / Fold change /veh REEP3 (11722064_at) / RFU IGLL1 (11728026_x_at) / Fold change /veh IGLL1 (11728026_x_at): dose or concentration left out as unconfirmed
Conditions: MV-4-11 cells, 48 hours

## Nc1ncn([C@@H]2O[C@H](CO)[C@@H](O)[C@H]2O)c(=O)n1 [azacitidine]
  Fold change /veh RHOB (11743442_s_at): 1.27
